# Source: US20240270698A2, “NOVEL PYRIMIDINE DERIVATIVE AND USE THEREOF” (KOREA RESEARCH INSTITUTE OF CHEMICAL TECHNOLOGY, priority 2019, published 2024)
# Columns and labels:
# [1] = molecular target: T1, human recombinant MLK3 protein (Homo sapiens, UniProt Q16584); test: MLK3 kinase activity assay (Eurofins, gamma-33P-ATP, filtermat scintillation counting); format: biochemical; conditions: human recombinant MLK3, 120 minutes at room temperature
# T1 construct: purchased Eurofins
# Procedure: (§1) Compounds 1 to 119 synthesized in Example 1 according to the present disclosure were assayed for inhibitory activity against MLK3/LRRK2 enzymes and anticancer activity against HepG2/HS746T cancer cells, and the results are summarized in Table 1, below.
# (§2) Inhibitory activity against MLK3 and LRRK2 enzymes was evaluated in Eurofins. In brief, human recombinant MLK3 protein was mixed with the compounds in a reaction buffer (8 mM MOPS (pH 7.0), 0.2 mM EDTA, 0.33 mg/mL myelin basic protein, 5 mM DTT) to which a mixture of 10 mM magnesium acetate and gamma-33P-ATP was then added before incubation at room temperature for 120 minutes. Afterward, the reaction was terminated with 0.5% phosphoric acid. Ten μL of the total mixture was spotted onto a P30 filtermat which was then washed four times for 4 minutes with 0.425% phosphoric acid and once in methanol prior to scintillation counting. Values for the activity of MLK3 were expressed as % of the control. For the activity of LRRK2, human recombinant LRRK2 protein was mixed with the compounds in a reaction buffer (50 mM HEPES (pH 8.0), 0.2 mM EDTA, 0.01% Brij-35, 1% (w/v) BSA, 5 mM DTT, 250 uM substrate peptide RLGRDKYKTLRQIRQ) and then reacted with a mixture of 10 mM magnesium acetate and gamma-33P-ATP at room temperature for 40 minutes. Afterward, the reaction was terminated with 0.5% phosphoric acid. Ten μL of the total mixture was spotted onto a P30 filtermat which was then washed four times for 4 minutes with 0.425% phosphoric acid and once in methanol prior to scintillation counting. Values for the activity of LRRK2 were expressed as % of the control.
# [2] = molecular target: T2, human recombinant LRRK2 protein (Homo sapiens, UniProt Q5S007); test: LRRK2 kinase activity assay (Eurofins, gamma-33P-ATP, filtermat scintillation counting); format: biochemical; conditions: human recombinant LRRK2, 40 minutes at room temperature
# T2 construct: purchased Eurofins
# T2 sequence (Q5S007 whole entry): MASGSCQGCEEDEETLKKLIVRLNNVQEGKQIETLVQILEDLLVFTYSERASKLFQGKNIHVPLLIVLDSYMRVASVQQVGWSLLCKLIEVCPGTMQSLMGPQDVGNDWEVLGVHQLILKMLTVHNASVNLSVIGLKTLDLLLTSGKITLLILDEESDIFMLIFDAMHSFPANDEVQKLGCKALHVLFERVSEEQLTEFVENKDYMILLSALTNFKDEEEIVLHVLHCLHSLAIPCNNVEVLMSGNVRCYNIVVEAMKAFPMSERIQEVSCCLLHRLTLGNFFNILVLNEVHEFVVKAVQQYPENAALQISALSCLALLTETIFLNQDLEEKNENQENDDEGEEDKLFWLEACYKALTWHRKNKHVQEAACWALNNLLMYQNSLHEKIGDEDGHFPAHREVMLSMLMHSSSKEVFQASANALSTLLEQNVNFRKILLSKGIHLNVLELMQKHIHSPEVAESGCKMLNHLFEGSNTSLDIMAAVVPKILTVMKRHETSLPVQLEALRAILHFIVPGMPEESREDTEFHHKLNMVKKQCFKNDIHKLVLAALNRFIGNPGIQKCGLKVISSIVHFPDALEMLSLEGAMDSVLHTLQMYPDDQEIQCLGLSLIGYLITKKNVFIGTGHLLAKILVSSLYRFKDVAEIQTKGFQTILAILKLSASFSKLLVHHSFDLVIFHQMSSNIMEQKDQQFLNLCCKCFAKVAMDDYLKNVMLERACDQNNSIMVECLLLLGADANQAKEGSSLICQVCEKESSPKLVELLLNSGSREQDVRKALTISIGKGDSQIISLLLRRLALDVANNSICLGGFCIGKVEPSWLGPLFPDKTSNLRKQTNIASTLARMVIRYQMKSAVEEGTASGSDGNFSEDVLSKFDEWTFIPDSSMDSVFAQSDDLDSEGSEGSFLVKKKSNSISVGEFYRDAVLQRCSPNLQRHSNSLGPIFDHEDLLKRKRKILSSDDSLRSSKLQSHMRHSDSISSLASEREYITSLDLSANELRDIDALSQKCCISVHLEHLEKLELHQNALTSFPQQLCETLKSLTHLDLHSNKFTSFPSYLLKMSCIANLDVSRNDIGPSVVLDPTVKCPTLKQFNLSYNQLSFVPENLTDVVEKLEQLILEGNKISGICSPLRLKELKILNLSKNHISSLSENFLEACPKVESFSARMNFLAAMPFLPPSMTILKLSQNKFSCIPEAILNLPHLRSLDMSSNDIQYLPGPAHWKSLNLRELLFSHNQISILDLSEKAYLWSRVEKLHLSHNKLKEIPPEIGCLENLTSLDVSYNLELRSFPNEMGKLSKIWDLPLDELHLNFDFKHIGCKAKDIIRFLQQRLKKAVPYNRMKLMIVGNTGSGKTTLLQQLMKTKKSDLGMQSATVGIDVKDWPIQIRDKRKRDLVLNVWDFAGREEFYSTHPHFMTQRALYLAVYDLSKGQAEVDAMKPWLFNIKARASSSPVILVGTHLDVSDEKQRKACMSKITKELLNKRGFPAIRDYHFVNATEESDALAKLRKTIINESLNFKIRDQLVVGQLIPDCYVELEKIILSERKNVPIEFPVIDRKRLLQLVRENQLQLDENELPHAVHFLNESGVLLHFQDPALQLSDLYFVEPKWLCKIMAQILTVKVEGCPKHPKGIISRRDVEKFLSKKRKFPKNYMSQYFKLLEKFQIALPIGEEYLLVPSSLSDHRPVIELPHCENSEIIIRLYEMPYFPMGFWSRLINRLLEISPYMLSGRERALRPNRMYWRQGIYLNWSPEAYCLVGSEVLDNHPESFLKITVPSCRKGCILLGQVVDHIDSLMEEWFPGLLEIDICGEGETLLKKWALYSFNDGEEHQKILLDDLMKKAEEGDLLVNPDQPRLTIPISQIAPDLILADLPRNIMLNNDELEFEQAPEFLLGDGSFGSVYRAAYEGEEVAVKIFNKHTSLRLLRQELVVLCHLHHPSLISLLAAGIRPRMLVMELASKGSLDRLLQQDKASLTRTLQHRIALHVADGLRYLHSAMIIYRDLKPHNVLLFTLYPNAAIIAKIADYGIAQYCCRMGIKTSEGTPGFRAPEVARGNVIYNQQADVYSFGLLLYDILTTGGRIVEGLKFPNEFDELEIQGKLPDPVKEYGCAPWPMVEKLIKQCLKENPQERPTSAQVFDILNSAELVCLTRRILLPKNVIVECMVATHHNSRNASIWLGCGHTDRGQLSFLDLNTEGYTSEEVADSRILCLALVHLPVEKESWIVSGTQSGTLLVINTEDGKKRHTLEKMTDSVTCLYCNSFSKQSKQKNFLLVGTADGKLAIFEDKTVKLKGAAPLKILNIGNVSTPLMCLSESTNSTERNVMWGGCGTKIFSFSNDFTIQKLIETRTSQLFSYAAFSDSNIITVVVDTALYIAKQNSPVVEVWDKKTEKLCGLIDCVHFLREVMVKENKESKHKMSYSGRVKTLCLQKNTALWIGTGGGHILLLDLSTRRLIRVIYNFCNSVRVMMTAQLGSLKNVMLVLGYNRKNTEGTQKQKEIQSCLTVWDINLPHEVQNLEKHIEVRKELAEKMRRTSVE
# Procedure: as §1, §2
# HepG2 cancer cells = test: Anticancer activity, cell viability by CCK-8, HepG2; format: cell-based; conditions: HepG2, 10 μM, 72 hours
# Procedure: (§3) Compounds 1 to 119 synthesized in Example 1 according to the present disclosure were assayed for inhibitory activity against MLK3/LRRK2 enzymes and anticancer activity against HepG2/H[…] cancer cells, and the results are summarized in Table 1, below. Assay for anticancer activity was conducted as follows. HepG2 and H[…] cancer cells were purchased from the Korean Cell Line Bank and cultured according to the instruction provided thereby. One hundred μL of a culture of the cells were seeded at a density of 4,000 cells/well into 96-well plates. After 24 hours, the cells were treated with the compounds for 72 hours. Then, cell viability was assayed using CCK-8 and expressed as % of the control.
# HS746T cancer cells = test: Anticancer activity, cell viability by CCK-8, HS746T; format: cell-based; conditions: 72 hours
# Procedure: as §3
# T1 sequence (Q16584 whole entry): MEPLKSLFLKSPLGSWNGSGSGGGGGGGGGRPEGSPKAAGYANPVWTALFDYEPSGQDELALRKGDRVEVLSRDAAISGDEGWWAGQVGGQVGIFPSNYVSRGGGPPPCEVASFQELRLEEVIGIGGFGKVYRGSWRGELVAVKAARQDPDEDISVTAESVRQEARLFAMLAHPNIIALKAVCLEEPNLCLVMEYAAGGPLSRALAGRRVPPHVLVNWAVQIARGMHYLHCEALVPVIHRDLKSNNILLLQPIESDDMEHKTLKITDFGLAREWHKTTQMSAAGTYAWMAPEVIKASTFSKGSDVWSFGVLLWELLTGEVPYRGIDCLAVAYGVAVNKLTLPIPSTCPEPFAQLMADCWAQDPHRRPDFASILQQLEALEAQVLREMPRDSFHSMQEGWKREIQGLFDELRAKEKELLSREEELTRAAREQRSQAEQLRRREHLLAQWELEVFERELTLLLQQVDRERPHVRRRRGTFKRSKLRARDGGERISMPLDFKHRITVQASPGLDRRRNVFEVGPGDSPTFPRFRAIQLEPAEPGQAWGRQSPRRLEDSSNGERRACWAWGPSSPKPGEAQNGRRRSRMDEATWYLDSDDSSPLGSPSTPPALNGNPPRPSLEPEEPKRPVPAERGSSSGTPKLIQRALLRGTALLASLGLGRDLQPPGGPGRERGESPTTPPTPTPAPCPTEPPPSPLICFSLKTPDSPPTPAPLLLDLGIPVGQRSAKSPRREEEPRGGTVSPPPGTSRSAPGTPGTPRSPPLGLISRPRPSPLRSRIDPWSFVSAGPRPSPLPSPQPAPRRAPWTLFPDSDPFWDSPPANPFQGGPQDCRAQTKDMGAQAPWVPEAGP
SMILES,IC50 [1],IC50 [2],Cell viability (% of Con. 10 μM) HepG2 (HepG2 cancer cells),Cell viability (% of Con. 10 μM) HS746T (HS746T cancer cells)
"COc1cc2c(cc1Nc1ncc(Cl)c(Nc3ccccc3P(C)(C)=O)n1)CN(C(=O)C(F)(F)F)CC2 [compound 62, 1-(7-((5-chloro-4-((2-(dimethylphosphoryl)phenyl)amino)pyrimidin-2-yl)amino)-6-methoxy-3,4-dihydroisoquinolin-2(1H)-yl)-2,2,2-trifluoroethan-1-one]",0.001 to 0.01 µM,0.001 to 0.01 µM,26 % of Con.,13 % of Con.
"CP(C)(=O)c1ccccc1Nc1nc(Nc2ccc3cn[nH]c3c2)ncc1Cl [compound 64, (2-((2-((1H-Indazol-6-yl)amino)-5-chloropyrimidin-4-yl)amino)phenyl)dimethylphosphine oxide]",0.001 to 0.01 µM,0.001 to 0.01 µM,23 % of Con.,29 % of Con.
"CP(C)(=O)c1ccccc1Nc1nc(Nc2ccc3[nH]ccc3c2)ncc1Cl [compound 65, (2-((2-((1H-Indol-5-yl)amino)-5-chloropyrimidin-4-yl)amino)phenyl)dimethylphosphine oxide]",0.001 to 0.01 µM,0.001 to 0.01 µM,20 % of Con.,23 % of Con.
"CP(C)(=O)c1ccccc1Nc1nc(Nc2ccc3[nH]ncc3c2)ncc1Cl [compound 66, (2-((2-((1H-Indazol-5-yl)amino)-5-chloropyrimidin-4-yl)amino)phenyl)dimethylphosphine oxide]",0.001 to 0.01 µM,0.001 to 0.01 µM,31 % of Con.,22 % of Con.
"CP(C)(=O)c1ccccc1Nc1nc(Nc2cccc3[nH]ccc23)ncc1Cl [compound 68, (2-((2-((1H-Indol-4-yl)amino)-5-chloropyrimidin-4-yl)amino)phenyl)dimethylphosphine oxide]",0.01 to 0.1 µM,0.001 to 0.01 µM,43 % of Con.,64 % of Con.
"Cc1cc2cc(Nc3ncc(Cl)c(Nc4ccccc4P(C)(C)=O)n3)ccc2[nH]1 [compound 69, (2-((5-Chloro-2-((2-methyl-1H-indol-5-yl)amino)pyrimidin-4-yl)amino)phenyl)dimethylphosphine oxide]",0.001 to 0.01 µM,0.001 to 0.01 µM,29 % of Con.,23 % of Con.
"Cc1ccc(Nc2ncc(Cl)c(Nc3ccccc3P(C)(C)=O)n2)c2[nH]cc(C#N)c12 [compound 70, 7-((5-chloro-4-((2-(dimethylphosphoryl)phenyl)amino)pyrimidin-2-yl)amino)-4-methyl-1H-indole-3-carbonitrile]",0.01 to 0.1 µM,0.001 to 0.01 µM,30 % of Con.,25 % of Con.
"CP(C)(=O)c1ccccc1Nc1nc(Nc2cccc3cc[nH]c23)ncc1Cl [compound 71, (2-((2-((1H-Indol-7-yl)amino)-5-chloropyrimidin-4-yl)amino)phenyl)dimethylphosphine oxide]",0.01 to 0.1 µM,0.001 to 0.01 µM,63 % of Con.,83 % of Con.
"CP(C)(=O)c1ccccc1Nc1nc(Nc2ccc3c(c2)CN(C(=O)C(F)(F)F)C3)ncc1Cl [compound 72, 1-(5-((5-Chloro-4-((2-(dimethylphosphoryl)phenyl)amino)pyrimidin-2-yl)amino)isoindolin-2-yl)-2,2,2-trifluoroethan-1-one]",0.01 to 0.1 µM,0.001 to 0.01 µM,35 % of Con.,9 % of Con.
"CP(C)(=O)c1ccccc1Nc1nc(Nc2ccc3c(c2)CNC3)ncc1Cl [compound 73, (2-((5-Chloro-2-(isoindolin-5-ylamino)pyrimidin-4-yl)amino)phenyl)dimethylphosphine oxide]",0.001 to 0.01 µM,0.001 to 0.01 µM,19 % of Con.,0.5 % of Con.
"CP(C)(=O)c1ccccc1Nc1nc(Nc2ccc3[nH]c(C(F)(F)F)nc3c2)ncc1Cl [compound 75, (2-((5-Chloro-2-((2-(trifluoromethyl)-1H-benzo[d]imidazol-5-yl)amino)pyrimidin-4-yl)amino)phenyl)dimethylphosphine oxide]",0.01 to 0.1 µM,0.001 to 0.01 µM,28 % of Con.,21 % of Con.
"CC(=O)N1CC=C(c2n[nH]c3ccc(Nc4ncc(Cl)c(Nc5ccccc5P(C)(C)=O)n4)cc23)CC1 [compound 99, 1-(4-(5-((5-Chloro-4-((2-(dimethylphosphoryl)phenyl)amino)pyrimidin-2-yl)amino)-1H-indazol-3-yl)-3,6-dihydropyridin-1(2H)-yl)ethan-1-one]",0.001 to 0.01 µM,0.001 to 0.01 µM,26 % of Con.,9 % of Con.

# More lines, main results first:
IC50 [1],IC50 [2],SMILES,Cell viability (% of Con. 10 μM) HepG2 (HepG2 cancer cells),Cell viability (% of Con. 10 μM) HS746T (HS746T cancer cells)
0.001 to 0.01 µM,0.001 to 0.01 µM,"CP(C)(=O)c1ccccc1Nc1nc(Nc2ccc3[nH]nc(Br)c3c2)ncc1Cl [compound 67, (2-((2-((3-Bromo-1H-indazol-5-yl)amino)-5-chloropyrimidin-4-yl)amino)phenyl)dimethylphosphine oxide]",33 % of Con.,25 % of Con.
0.001 to 0.01 µM,0.001 to 0.01 µM,"CC(C)n1cc(-c2n[nH]c3ccc(Nc4ncc(Cl)c(Nc5ccccc5P(C)(C)=O)n4)cc23)cn1 [compound 93, (2-((5-Chloro-2-((3-(1-isopropyl-1H-pyrazol-4-yl)-1H-indazol-5-yl)amino)pyrimidin-4-yl)amino)phenyl)dimethylphosphine oxide]",42 % of Con.,18 % of Con.
0.001 to 0.01 µM,0.001 to 0.01 µM,"Cn1cc(-c2n[nH]c3ccc(Nc4ncc(Cl)c(Nc5ccccc5P(C)(C)=O)n4)cc23)cn1 [compound 94, (2-((5-Chloro-2-((3-(1-methyl-1H-pyrazol-4-yl)-1H-indazol-5-yl)amino)pyrimidin-4-yl)amino)phenyl)dimethylphosphine oxide]",30 % of Con.,15 % of Con.
0.001 to 0.01 µM,0.001 to 0.01 µM,"CCCn1cc(-c2n[nH]c3ccc(Nc4ncc(Cl)c(Nc5ccccc5P(C)(C)=O)n4)cc23)cn1 [compound 95, (2-((5-Chloro-2-((3-(1-propyl-1H-pyrazol-4-yl)-1H-indazol-5-yl)amino)pyrimidin-4-yl)amino)phenyl)dimethylphosphine oxide]",39 % of Con.,19 % of Con.
0.001 to 0.01 µM,0.001 to 0.01 µM,"CP(C)(=O)c1ccccc1Nc1nc(Nc2ccc3[nH]nc(-c4ccccc4)c3c2)ncc1Cl [compound 96, (2-((5-chloro-2-((3-phenyl-1H-indazol-5-yl)amino)pyrimidin-4-yl)amino)phenyl)dimethylphosphine oxide]",15 % of Con.,10 % of Con.
0.001 to 0.01 µM,0.001 to 0.01 µM,"CP(C)(=O)c1ccccc1Nc1nc(Nc2ccc3[nH]nc(-c4cccc([N+](=O)[O-])c4)c3c2)ncc1Cl [compound 97, (2-((5-Chloro-2-((3-(3-nitrophenyl)-1H-indazol-5-yl)amino)pyrimidin-4-yl)amino)phenyl)dimethylphosphine oxide]",21 % of Con.,11 % of Con.
0.001 to 0.01 µM,0.001 to 0.01 µM,"CP(C)(=O)c1ccccc1Nc1nc(Nc2cnc3[nH]nc(-c4cccnc4F)c3c2)ncc1Cl [compound 98, (2-((5-Chloro-2-((3-(2-fluoropyridin-3-yl)-1H-pyrazolo[3,4-b]pyridin-5-yl)amino)pyrimidin-4-yl)amino)phenyl)dimethylphosphine oxide]",27 % of Con.,10 % of Con.
0.001 to 0.01 µM,0.01 to 0.1 µM,"CP(C)(=O)c1ccccc1Nc1nc(Nc2ccc3[nH]nc(-c4ccc(CO)o4)c3c2)ncc1Cl [compound 101, (2-((5-chloro-2-((3-(5-(hydroxymethyl)furan-2-yl)-1H-indazol-5-yl)amino)pyrimidin-4-yl)amino)phenyl)dimethylphosphine oxide]",56 % of Con.,13 % of Con.
